Test [1] has as its system luminescence output of luciferase. In words: Compounds and reagents that inhibit or interfere with the ID-Oligo luminescence methods. It is filed as biochemical. From the text: Various compounds and components may interfere with the methods described herein. […] Thus, in some embodiments, the sample is free of compounds and components that inhibit the luminescence output of luciferase. Accordingly, the sample may be free of sodium-azide, sodium-citrate, heparin, EDTA, EGTA, proteases, phosphates, 2,2′-azino-di-(3-ethylbenzothiazoline)-6-sulfonic acid (ABTS), and/or butylated hydroxytoluene (BHT). In various related aspects, the present application also relates to devices and kits for performing the methods described herein. Such kits contain monitors, reagents and procedures that can be utilized in a clinical or research setting or adapted for either the field laboratory or on-site use. In particular, kits comprising the disclosed reagents used in practicing the methods described herein include any of a number of means for detecting the captured target nucleic acid molecule and measuring the bioluminescent signal produced subsequent to target capture, along with appropriate instructions, are contemplated. Suitable kits comprise reagents sufficient for performing an assay, or one or more independent steps of an assay, to detect a target nucleic acid molecule, as described herein above.

For test [2], the system named is coupled ATPS-luciferase reaction. The note with it: 0.04% Na-Azide, LU measured for 200 seconds.
The next test concerns the target luciferase (Photinus pyralis, UniProt P08659). In words: Background LU of reaction with only luciferase and no viral RNA, dATP versus dATPαS. Format: biochemical.
For test [3], the system named is SARS-CoV-2, USA-WA1/2020 RNA. Briefly: ID-Oligos assay signal output with dC/T/G only or supplemented with dATPαS. The note with it: supplemented with 0.1 mM dATPαS versus only dT/G/C. Format: biochemical.

From patent US20230243002A1, “ASSAY OT DETECT VIRUS” (priority 2020, published 2023) come the findings set out here.

Sequence of luciferase (P08659 whole entry): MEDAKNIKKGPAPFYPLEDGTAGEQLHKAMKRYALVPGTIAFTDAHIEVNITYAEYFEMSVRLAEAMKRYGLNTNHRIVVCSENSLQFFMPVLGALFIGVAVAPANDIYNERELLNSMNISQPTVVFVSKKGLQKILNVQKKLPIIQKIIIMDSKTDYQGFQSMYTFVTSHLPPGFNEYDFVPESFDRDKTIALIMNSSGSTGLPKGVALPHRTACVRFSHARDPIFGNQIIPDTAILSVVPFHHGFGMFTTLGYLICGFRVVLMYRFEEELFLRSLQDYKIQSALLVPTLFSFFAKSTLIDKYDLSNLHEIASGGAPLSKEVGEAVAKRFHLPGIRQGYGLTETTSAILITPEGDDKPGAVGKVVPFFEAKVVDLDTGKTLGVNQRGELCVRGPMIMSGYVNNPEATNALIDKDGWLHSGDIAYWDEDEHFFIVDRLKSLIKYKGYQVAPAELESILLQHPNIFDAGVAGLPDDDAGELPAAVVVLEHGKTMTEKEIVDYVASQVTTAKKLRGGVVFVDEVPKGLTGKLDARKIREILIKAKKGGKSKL

As to `CCn1c(=NN=c2sc3cc(S(=O)(=O)O)ccc3n2CC)sc2cc(S(=O)(=O)O)ccc21` [ABTS, 2,2′-azino-di-(3-ethylbenzothiazoline)-6-sulfonic acid], the “inhibit or interfere with the methods described herein” value in test [1] is given as “inhibit or interfere”. Same read-out and setting: the same measure for `Cc1cc(C(C)(C)C)c(O)c(C(C)(C)C)c1` [BHT, butylated hydroxytoluene]: “inhibit or interfere”; for `O=C(O)CN(CCN(CC(=O)O)CC(=O)O)CC(=O)O` [EDTA]: “inhibit or interfere”; for `O=C(O)CN(CCOCCOCCN(CC(=O)O)CC(=O)O)CC(=O)O` [EGTA]: “inhibit or interfere”. Regarding `[N-]=[N+]=[N-].[Na+]` [Na-azide], the “effect on the luminescence output of the coupled ATPS-luciferase reaction” value in test [2] is given as “inhibitory effect”. The “inhibit or interfere with the methods described herein” value in test [1] is reported as “inhibit or interfere”. As to `O=C([O-])CC(O)(CC(=O)[O-])C(=O)[O-].[Na+].[Na+].[Na+]` [Na-citrate], the “inhibit or interfere with the methods described herein” value in test [1] is recorded as “inhibit or interfere”. For `Nc1ncnc2c1ncn2[C@H]1C[C@H](O)[C@@H](COP(O)(=S)OP(=O)(O)OP(=O)(O)O)O1` (some centres unmarked) [dATPαS], the improved signal-to-noise ratio on luciferase was ~2 orders of magnitude. Further, the LU background result at luciferase (0.1 mM/1 mM, luciferase only, no viral RNA) was “reduction”. Also, in test [3], the reaction slope result is given as “Higher slope values”. For heparin, the “inhibit or interfere with the methods described herein” value in test [1] was “inhibit or interfere”.
